Measurements: patent publication EP2762573A1, “In vitro method for determining cholestatic properties of a compound” (priority 2013, dated 2014)

Experiments:
[1] = test system: Bcl2l11; assay: Biomarkers validation by q-pcr in precision cut liver slices: Bcl2l11 expression
Protocol: (§1) 23-weeks old male C57BL/6 mice were obtained from Harlan (Horst, The Netherlands). Animals were kept for 1 week at a housing temperature of 22°C and at a relative humidity of 30-70%. The lighting cycle was 12-h light and 12-h dark. At the age of 24 weeks animals were sacrificed by an overdose of isoflurane. The treatment protocol was approved by the Ethical Committee for Animal Experiments at Wageningen University.
(§2) Immediately after the animals were killed the liver was perfused with PBS and placed in ice-cold Krebs-Henseleit buffer (KHB) (pH 7.4, supplemented with 11 mM glucose). Liver tissue was transported to the laboratory within approximately 30 min and cylindrical liver cores were produced using a surgical biopsy punch with diameter of 5 mm (KAI, SynErgo Europe, Romania). Liver cores were placed in a Krumdieck tissue slicer (Alabama Research and Development, Munford, AL) filled with ice-cold KHB aerated with carbogen and supplemented with 11 mM glucose. Precesion cut liver slices (PCLS) with a diameter of 5 mm, a thickness of 0.2 mm and a weight of approximately 10 mg were prepared. Immediately after preparation, slices were transferred into culture plates filled with pre-warmed (37 degrees C) Williams E medium (WEM). Three liver slices were pre-cultured in one well of the 6-well plate filled with 4 ml of WEM for one hour with continuous shaking (70 rpm). Incubations were performed in an oxygen controlled incubator (Galaxy 48 R New Brunswick, Nijmegen, the Netherlands) at 80% of oxygen; 5% CO2 and the remaining gas volume was filled up to […] with N2. After one hour of pre-incubation, media were removed and replaced with fresh media containing test compounds or appropriate solvents. After incubations, samples were snap-frozen in liquid nitrogen and stored in -80 °C for further analysis. Samples dedicated to histology were stored in 4 % formaldehyde at room temperature.
(§3) PCLS were incubated at the same conditions as described above. Slices were exposed for 24 and 48 hours to one concentration of the tested compounds or controls. Concentrations used in the exposure experiments were preselected in the dose selection experiments for each drug individually. […] For the necrotic compounds: 1000 uM acetaminophen, 5 µM paraquat and 1000 uM isoniazid. Liver slices obtained from five mice were used in five toxic compound or control exposure experiments performed at the same time. Dose selection experiments and exposure experiments were performed at different days. Therefore, ATP, LDH, and protein assays were performed again for the exposure experiments to confirm that the selected doses did also not affect slice viability in these experiments.
(§4) In further studies, expression of ten candidate biomarkers in PCLS was analyzed by q-pcr using the Biorad CFX96 TM Real-Time Detection System (Bio-Rad, Veenendaal, The Netherlands) with the following cycling conditions: 15 min 95°C followed by 40 cycles of 15s 95 °C and 1 min 60 °C. Reactions were performed in 10 µl and contained 20 ng cDNA, 1x TaqMan PCR Master Mix (Applied Biosystems, Foster City, CA), and depending on the analysed gene, 250 nM probe and 900 nM primer (for actin b) or 1xTaqMan gene expression assay (for the remaining genes) (Applied Biosystems, foster City, CA).

[2] = test system: Parp16; assay: Biomarkers validation by q-pcr in precision cut liver slices: Parp16 expression
Protocol: as §1, §2, §3, §4

[3] = test system: Mras; assay: Biomarkers validation by q-pcr in precision cut liver slices: Mras expression
Protocol: as §1, §2, §3, §4

[4] = test system: Myo1e; assay: Biomarkers validation by q-pcr in precision cut liver slices: Myo1e expression
Protocol: as §1, §2, §3, §4

[5] = test system: Nme6; assay: Biomarkers validation by q-pcr in precision cut liver slices: Nme6 expression
Protocol: as §1, §2, §3, §4

[6] = test system: ABCG5; assay: Biomarkers validation by q-pcr in precision cut liver slices: ABCG5 expression
Protocol: as §1, §2, §3, §4

[7] = test system: ABCG8; assay: Biomarkers validation by q-pcr in precision cut liver slices: ABCG8 expression
Protocol: as §1, §2, §3, §4

[8] = test system: SERPINE1; assay: Biomarkers validation by q-pcr in precision cut liver slices: SERPINE1 expression
Protocol: as §1, §2, §3, §4

[9] = test system: BAAT; assay: Biomarkers validation by q-pcr in precision cut liver slices: BAAT expression
Protocol: as §1, §2, §3, §4

[10] = test system: KLF15; assay: Biomarkers validation by q-pcr in precision cut liver slices: KLF15 expression
Protocol: as §1, §2, §3, §4

[11] = test system: PCLS; assay: Cytotoxicity analysis - dose selection experiments (LDH, ATP, protein assay); settings: mouse PCLS; LDH, ATP, and protein assay; concentration then used in exposure experiments
Protocol: as §1, §2, §3

## C[n+]1ccc(-c2cc[n+](C)cc2)cc1 [PQ, paraquat]
[1]
  *fold change 1, gene expression level Bcl2111: 1,3
  *fold change 2, gene expression level Bcl2111: 1,1
  *fold change 3, gene expression level Bcl2111: 1,1
  *fold change 4, gene expression level Bcl2111: 1,2
  *fold change 5, gene expression level Bcl2111: 1,1
[2]
  *fold change 1, gene expression level Parp 16: 1,6
  *fold change 2, gene expression level Parp 16: 1,0
  *fold change 3, gene expression level Parp 16: 1,0
  *fold change 4, gene expression level Parp 16: 1,1
  *fold change 5, gene expression level Parp 16: 1,4
[3]
  *fold change 1, gene expression level Mras: 1,4
  *fold change 2, gene expression level Mras: 1,3
  *fold change 3, gene expression level Mras: 1,1
  *fold change 4, gene expression level Mras: 1,1
  *fold change 5, gene expression level Mras: 1,4
[4]
  *fold change 1, gene expression level Myo 1e: 1,1
  *fold change 2, gene expression level Myo 1e: 1,4
  *fold change 3, gene expression level Myo 1e: 1,1
  *fold change 4, gene expression level Myo 1e: 1,2
  *fold change 5, gene expression level Myo 1e: 1,2
[5]
  *fold change 1, gene expression level Nme6: 1,1
  *fold change 2, gene expression level Nme6: -1,2
  *fold change 3, gene expression level Nme6: 1,0
  *fold change 4, gene expression level Nme6: 1,1
  *fold change 5, gene expression level Nme6: 1,2
[6]
  *fold change 1, gene expression level ABCG5: 1,1
  *fold change 2, gene expression level ABCG5: 1,1
  *fold change 3, gene expression level ABCG5: 1,7
  *fold change 4, gene expression level ABCG5: -1,3
  *fold change 5, gene expression level ABCG5: -1,6
[7]
  *fold change 1, gene expression level ABCG8: 1,0
  *fold change 2, gene expression level ABCG8: -1,2
  *fold change 3, gene expression level ABCG8: 1,8
  *fold change 4, gene expression level ABCG8: -1,3
  *fold change 5, gene expression level ABCG8: -1,4
[8]
  *fold change 1, gene expression level SERPINE1: 2,7
  *fold change 2, gene expression level SERPINE1: 2,3
  *fold change 3, gene expression level SERPINE1: 2,7
  *fold change 4, gene expression level SERPINE1: 1,3
  *fold change 5, gene expression level SERPINE1: 1,9
[8]; Mann-Whitney test vs controls, 5 mice, mouse PCLS, same concentrations as fold change columns
  MW test, gene expression level SERPINE1: * (A p-value <0.05 was considered significant)
[9]
  *fold change 1, gene expression level BAAT: -1,2
  *fold change 2, gene expression level BAAT: -1,0
  *fold change 3, gene expression level BAAT: 1,7
  *fold change 4, gene expression level BAAT: 1,1
  *fold change 5, gene expression level BAAT: -1,4
[10]
  *fold change 1, gene expression level KLF15: 1,3
  *fold change 2, gene expression level KLF15: -1,0
  *fold change 3, gene expression level KLF15: 1,3
  *fold change 4, gene expression level KLF15: 1,1
  *fold change 5, gene expression level KLF15: -1,2
[11]
  highest concentration that did not cause significant increase of toxicity: 5 µM
